We go through 2 compounds from patent US10668159B2, “Anti-methanogenic compositions and uses thereof” (Cedars-Sinai Medical Center, priority 2014, dated 2020).

Data set [1] in a line: Binary stress testing of 1:1 lovastatin/excipient mixtures, HPLC. Conditions: range of temperature and humidity conditions, 7 days.
Protocol: The compatibility of lovastatin drug substance with formulation excipients was evaluated in binary stress testing studies where 1:1 mixtures of lovastatin and each excipient were stored for 7 days under different conditions of temperature and relative humidity (RH). Samples were analyzed by HPLC (based on USP methods) at day 0 and day 7.
For data set [2] the following is noted: after oral administration; cited from earlier work.
Data set [3] concerns M. smithii. In words: Lovastatin gavage in M. smithii colonized high-fat diet rats, qPCR of bowel segments. In kind it is in vivo, Sprague-Dawley rats. Particulars: 1.5 mg/rat gavaged daily for 10 days. On the procedure:
The rats were assessed for increased M. smithii by qPCR before and after the diet, and then divided into 3 groups. Group 1 was given lovastatin in its lactone form, Group 2 was given lovastatin hydroxy acid (each 1.5 mg/rat), and Group 3 was gavaged with a placebo. Each group was gavaged daily for 10 days. Three day stool collections were performed to assess average stool wet weight and daily variability prior to commencing the high fat diet, after 7 weeks of high-fat diet, and the final days of the lovastatin gavage (still on high-fat diet). On day 10 of the gavage, rats were euthanized and DNA was extracted from contents of ligated bowel segments (duodenum, jejunum, ileum, cecum and left colon). qPCR was performed using primers for total luminal bacteria and M. smithii.
(In general: Real-time PCR tracks product formation cycle by cycle.)

Data set [4] deals with human and rat fecal bacterial enzyme fractions. Particulars: over a 12 h period; cited from earlier work.
For data set [5] the following is noted: pylorus-ligated rats, within 30 min; cited from earlier work.

In the case of `CC[C@H](C)C(=O)O[C@H]1C[C@@H](C)C=C2C=C[C@H](C)[C@H](CC[C@@H]3C[C@@H](O)CC(=O)O3)[C@H]21` [Lovastatin], the “stability in binary stress testing” value in data set [1] is listed as “stable”. The “pre-portal hydrolysis in vivo” value in data set [2] is about 10%. Also, in data set [3], the “M. smithii levels in the colon” value was “unaffected”. In addition, in data set [3] (versus placebo), the “ratio of M. smithii to total bacteria in the ileum” value was “reduced”. For the same compound, the “loss of lovastatin lactone” value in data set [4] was 8-19%. For the same compound, the “fraction of an intragastric dose that exited the gastric juice” value in data set [5] was about 30%.
As to `CC[C@H](C)C(=O)O[C@H]1C[C@@H](C)C=C2C=C[C@H](C)[C@H](CC[C@@H](O)C[C@@H](O)CC(=O)O)[C@H]21` [lovastatin β-hydroxyacid], the “M. smithii levels in the colon” value in data set [3] is given as “unaffected”. Besides, the “fraction of an intragastric dose that exited the gastric juice” value in data set [5] is given as about 30%.
